Assay results: US10080812B2, “Radioactive iodine labeled pyrido[1,2-a]benzoimidazole derivative compound” (priority 2015, dated 2018)

Key:
[1] = Metabolite analysis in blood; format: in vivo, ddY mouse; details: i.v.; for Proportion of parent compound in blood: mouse plasma, mean±SD n=3
Description: A 5-week-old male ddY mouse was used as a normal mouse. [^123I]BIP-3 obtained by the method shown in Example 10, which was contained in saline containing 0.1 vol % Tween 80 and 10 vol % ethanol, was administered from the tail vein (3.70 MBq, 100 μL). 2 minutes, 10 minutes, or 30 minutes after administration, the mouse was slaughtered, and blood was collected into a test tube with an inner wall coated with Heparin Sodium Injection (manufactured by Nipro Pharma Corp.). After radioactivity measurement, the blood was centrifuged at 4000×g at 4° C. for 5 minutes and separated into plasma and cell components. To the obtained plasma, a 2-fold volume of methanol was added for protein denaturation, and the mixture was centrifuged at 4000×g at 4° C. for 5 minutes. The obtained supernatant was passed through Cosmonice Filter (S) (0.45 μm, 4 mm) (Nacalai Tesque, Inc.) and analyzed by reverse phase HPLC. Analytical conditions for HPLC were the same as the conditions used in Example 9.

[2] = Metabolite analysis in brain; format: in vivo, ddY mouse; details: mouse brain, 2 min after i.v. administration
Description: A 5-week-old male ddY mouse was used as a normal mouse. [^123I]BIP-3 obtained by the method shown in Example 10, which was contained in saline containing 0.1 vol % Tween 80 and 10 vol % ethanol, was administered from the tail vein (3.70 MBq, […]). After 2 minutes, the mouse was slaughtered, and the brain was excised, homogenized in methanol (2.00 mL) and TBS (2.00 mL), and centrifuged at 4000×g at 4° C. for 10 minutes, followed by the collection of a supernatant. The obtained supernatant was passed through Cosmonice Filter (S) (0.45 μm, 4 mm) (Nacalai Tesque, Inc.) and analyzed by reverse phase HPLC. Analytical conditions for HPLC were the same as the conditions used in Example 9.

## [123I]c1ccc2c(c1)nc1ccccn12 [[^123I]BIP-3, 7-[^123I]iodobenzo[4,5]imidazo[1,2-a]pyridine]
[1]; 2 min after administration
  Proportion of parent compound in blood: 83.1 ± 7.7
[1]; 10 min after administration
  Proportion of parent compound in blood: 23.6 ± 2.2
[1]; 30 min after administration
  Proportion of parent compound in blood: 8.4 ± 1.1
[1]; mouse, HPLC of plasma
  metabolite formation in blood: forms a highly water-soluble metabolite
[2]
  metabolite analysis of brain homogenates (reverse phase HPLC): only the signal peak of the parent compound was detected
